This is an account of results in ChEMBL document CHEMBL4725256, “A critical update on the strategies towards modulators targeting androgen receptors” (Bioorg Med Chem, 2020).

The target in the assay is T1, Androgen receptor (Rattus norvegicus, UniProt P15207).
T1 sequence (P15207 whole entry): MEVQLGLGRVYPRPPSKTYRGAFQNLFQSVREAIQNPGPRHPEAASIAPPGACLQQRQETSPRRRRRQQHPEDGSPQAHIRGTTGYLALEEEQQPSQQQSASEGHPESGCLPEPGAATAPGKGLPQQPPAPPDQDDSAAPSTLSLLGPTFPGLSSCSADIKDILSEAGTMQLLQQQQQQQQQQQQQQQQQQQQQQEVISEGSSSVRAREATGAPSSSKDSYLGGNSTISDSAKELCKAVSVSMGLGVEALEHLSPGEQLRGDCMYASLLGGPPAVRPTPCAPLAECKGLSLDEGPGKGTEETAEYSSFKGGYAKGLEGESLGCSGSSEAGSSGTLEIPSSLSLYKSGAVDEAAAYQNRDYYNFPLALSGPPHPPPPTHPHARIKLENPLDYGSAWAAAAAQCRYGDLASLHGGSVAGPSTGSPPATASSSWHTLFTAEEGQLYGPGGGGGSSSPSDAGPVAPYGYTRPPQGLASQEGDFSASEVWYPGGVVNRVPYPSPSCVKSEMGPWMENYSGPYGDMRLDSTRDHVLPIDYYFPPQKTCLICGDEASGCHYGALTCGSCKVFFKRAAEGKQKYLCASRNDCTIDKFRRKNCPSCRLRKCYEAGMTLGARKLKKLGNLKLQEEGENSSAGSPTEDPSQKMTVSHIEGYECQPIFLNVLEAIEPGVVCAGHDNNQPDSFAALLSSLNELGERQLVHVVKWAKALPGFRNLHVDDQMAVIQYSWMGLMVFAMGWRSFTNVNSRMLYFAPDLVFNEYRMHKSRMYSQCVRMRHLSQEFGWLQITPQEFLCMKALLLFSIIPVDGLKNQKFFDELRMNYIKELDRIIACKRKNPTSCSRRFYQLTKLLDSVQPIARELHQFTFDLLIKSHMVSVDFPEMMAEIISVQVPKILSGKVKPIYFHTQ
The assay can be described thus: Antagonist activity at recombinant GST/His-tagged rat androgen receptor amino-terminal domain by fluorescence polarization assay. (In fluorescence polarisation assays a small probe gives low polarisation when free and higher when bound to something large.)

Regarding `CC(C)(c1ccc(OCC(O)CO)cc1)c1ccc(OCC(O)CCl)cc1` (stereo unspecified), the IC50 (commonly the midpoint of a concentration-inhibition curve) came to 6 µM.
